# Results reported in patent publication US10087178B2, “Substituted spiropyrido[1,2-a]pyrazine derivative and medicinal use thereof as HIV integrase inhibitor” (priority 2012, dated 2018).
# Where a name gives a salt, the structure may show the parent alone.
# Test system: HIV-1 NL4-3 strain
# Experiment: Evaluation of antiviral activity: acute infection system of MT-4 cell with HIV-1 NL4-3 strain
# Assay type: cell-based
# Conditions: Human immunodeficiency virus 1, NL43, MT4, 120 h, MT-4 cells infected with HIV-1 NL4-3 strain (MOI 0.05), cultured 5 days, Cell Titer-Glo; read-out: antiviral activity (EC50)
row,SMILES,EC50
1,"COC[C@H]1C[C@@]12CN(C)C(=O)c1c(O)c(=O)c(C(=O)NCc3cc(N4CCCC4=O)cc(Cl)c3F)cn12 [Example T34, (1S,2S)-N-(3-chloro-2-fluoro-5-(2-oxopyrrolidin-1-yl)benzyl)-9′-hydroxy-2-(methoxymethyl)-2′-methyl-1′,8′-dioxo-1′,2′,3′,8′-tetrahydrospiro[cyclopropane-1,4′-pyrido[1,2-a]pyrazine]-7′-carboxamide]",23 nM
2,"COC[C@H]1C[C@@]2(CN(C)C(=O)c3c(O)c(=O)c(C(=O)NCc4cccc(Cl)c4F)cn32)C1 [Example 27, N-(3-chloro-2-fluorobenzyl)-9′-hydroxy-trans-3-(methoxymethyl)-2′-methyl-1′,8′-dioxo-1′,2′,3′,8′-tetrahydrospiro[cyclobutane-1,4′-pyrido[1,2-a]pyrazine]-7′-carboxamide]",1.5 nM
3,"COC[C@H]1C[C@@]12CN(C)C(=O)c1c(O)c(=O)c(C(=O)NCc3cc(OC)cc(Cl)c3F)cn12 [Example T21, (1S,2S)-N-(3-chloro-2-fluoro-5-methoxybenzyl)-9′-hydroxy-2-(methoxymethyl)-2′-methyl-1′,8′-dioxo-1′,2′,3′,8′-tetrahydrospiro[cyclopropane-1,4′-pyrido[1,2-a]pyrazine]-7′-carboxamide]",6.1 nM
4,"CC(C)O[C@H]1C[C@@]2(CN(C)C(=O)c3c(O)c(=O)c(C(=O)NCc4cccc(Cl)c4F)cn32)C1 [Example S40, N-(3-chloro-2-fluorobenzyl)-9′-hydroxy-trans-3-isopropoxy-2′-methyl-1′-8′-dioxo-1′,2′,3′,8′-tetrahydrospiro[cyclobutane-1,4′-pyrido[1,2-a]pyrazine]-7′-carboxamide hydrochloride]",2.3 nM
5,"COC[C@H]1C[C@@]12Cn1cc(C(=O)NCc3ccc(F)cc3F)c(=O)c(O)c1C(=O)N2C(C)C [Example T41, (1S,2S)-N-(2,4-difluorobenzyl)-9′-hydroxy-2′-isopropyl-2-(methoxymethyl)-1′,8′-dioxo-1′,2′,4′,8′-tetrahydrospiro[cyclopropane-1,3′-pyrido[1,2-a]pyrazine]-7′-carboxamide]",2.2 nM
6,"COc1ccc(CNC(=O)c2cn3c(c(O)c2=O)C(=O)N(C)C[C@]32C[C@H](CO)C2)c(F)c1Cl [Example S50, N-(3-chloro-2-fluoro-4-methoxybenzyl)-9′-hydroxy- cis-3-(hydroxymethyl)-2′-methyl-1′,8′-dioxo-1′,2′,3′,8′-tetrahydrospiro[cyclobutane-1,4′-pyrido[1,2-a]pyrazine]-7′-carboxamide]",37 nM
7,"COC[C@H]1C[C@]2(CN(C)C(=O)c3c([O][Ca][O]c4c5n(cc(C(=O)NCc6cccc(Cl)c6F)c4=O)[C@]4(CN(C)C5=O)C[C@H](COC)C4)c(=O)c(C(=O)NCc4cccc(Cl)c4F)cn32)C1 [Example 30, Monocalcium bis[7′-(3-chloro-2-fluorobenzylcarbamoyl)-cis-3-(methoxymethyl)-2′-methyl-1′,8′-dioxo-1′,2′,3′,8′-tetrahydrospiro[cyclobutane-1,4′-pyrido[1,2-a]pyrazin]-9′-olate]]",1.1 nM
8,"CO[C@H]1C[C@@]2(Cn3cc(C(=O)NCc4cccc(Cl)c4F)c(=O)c(O)c3C(=O)N2C)C1 [Example S62, N-(3-chloro-2-fluorobenzyl)-9′-hydroxy-trans-3-methoxy-2′-methyl-1′,8′-dioxo-1′,2′,4′,8′-tetrahydrospiro[cyclobutane-1,3′-pyrido[1,2-a]pyrazine]-7′-carboxamide hydrochloride]",4.6 nM

# Same assay, conditions: Human immunodeficiency virus 1, NL43, MT4, 120 h, antiviral activity; MT-4 cells infected with HIV-1 NL4-3 (MOI 0.05), 5 days culture, Cell Titer-Glo luminescence
row,SMILES,EC50
1,"CC(C)N1C[C@]2(C[C@H]2CO)n2cc(C(=O)NCc3ccc(F)cc3F)c(=O)c(O)c2C1=O [Example 11, (1R,2R)—N-(2,4-difluorobenzyl)-9′-hydroxy-2-(hydroxymethyl)-2′-isopropyl-1′,8′-dioxo-1′,2′,3′,8′-tetrahydrospiro[cyclopropane-1,4′-pyrido[1,2-a]pyrazine]-7′-carboxamide hydrochloride]",5.8 nM
2,"COC[C@H]1C[C@]2(CN(C)C(=O)c3c(O)c(=O)c(C(=O)NCc4cccc(Cl)c4F)cn32)C1 [Example 3, N-(3-chloro-2-fluorobenzyl)-9′-hydroxy-cis-3-(methoxymethyl)-2′-methyl-1′,8′-dioxo-1′,2′,3′,8′-tetrahydrospiro[cyclobutane-1,4′-pyrido[1,2-a]pyrazine]-7′-carboxamide hydrochloride]",3.2 nM

# Same assay, conditions: Human immunodeficiency virus 1, NL43, MT4, 120 h, antiviral activity; MT-4 cells infected with HIV-1 NL4-3 (MOI 0.05), 5 days culture, Cell Titer-Glo luminescence; read-out: EC50
row,SMILES,EC50
1,"CCO[C@H]1C[C@]2(CN(CC)C(=O)c3c(O)c(=O)c(C(=O)NCc4ccc(F)cc4F)cn32)C1 [Example S21, N-(2,4-difluorobenzyl)-cis-3-ethoxy-2′-ethyl-9′-hydroxy-1′,8′-dioxo-1′,2′,3′,8′-tetrahydrospiro[cyclobutane-1,4′-pyrido[1,2-a]pyrazine]-7′-carboxamide hydrochloride]",3.8 nM
2,"CO[C@H]1C[C@@]2(CN(C(C)C)C(=O)c3c(O)c(=O)c(C(=O)NCc4ccc(F)cc4F)cn32)C1 [Example S5, N-(2,4-difluorobenzyl)-9′-hydroxy-2′-isopropyl-trans-3-methoxy-1′,8′-dioxo-1′,2′,3′,8′-tetrahydrospiro[cyclobutane-1,4′-pyrido[1,2-a]pyrazine]-7′-carboxamide hydrochloride]",4.4 nM

# Same assay, conditions: Human immunodeficiency virus 1, NL43, MT4, 120 h, read-out: antiviral activity (EC50), MT-4 cells infected with HIV-1 NL4-3 strain (MOI 0.05), cultured 5 days, Cell Titer-Glo
row,SMILES,EC50
1,"CN1C[C@]2(C[C@H]2CO)n2cc(C(=O)NCc3cccc(Cl)c3F)c(=O)c(O)c2C1=O [Example T23, (1R,2R)-N-(3-chloro-2-fluorobenzyl)-9′-hydroxy-2-(hydroxymethyl)-2′-methyl-1′,8′-dioxo-1′,2′,3′,8′-tetrahydrospiro[cyclopropane-1,4′-pyrido[1,2-a]pyrazine]-7′-carboxamide hydrochloride]",9.6 nM
2,"CC(C)N1C[C@@]2(C[C@@H]2C(=O)N(C)C)n2cc(C(=O)NCc3cccc(Cl)c3F)c(=O)c(O)c2C1=O [Example T13, (1S,2S)-N^7′-(3-chloro-2-fluorobenzyl)-9′-hydroxy-2′-isopropyl-N^2,N^2-dimethyl-1′,8′-dioxo-1′,2′,3′,8′-tetrahydrospiro[cyclopropane-1,4′-pyrido[1,2-a]pyrazine]-2,7′-dicarboxamide hydrochloride]",3.4 nM

# Same assay, conditions: MT-4 cells infected with HIV-1 NL4-3 strain (MOI 0.05), cultured 5 days, Cell Titer-Glo; read-out: antiviral activity (EC50)
row,SMILES,EC50
1,"COC[C@H]1C[C@]2(CN(C)C(=O)c3c(O)c(=O)c(C(=O)NCc4cccc(Cl)c4F)cn32)C1 [Example 26, N-(3-chloro-2-fluorobenzyl)-9′-hydroxy-cis-3-(methoxymethyl)-2′-methyl-1′,8′-dioxo-1′,2′,3′,8′-tetrahydrospiro[cyclobutane-1,4′-pyrido[1,2-a]pyrazine]-7′-carboxamide]",1.9 nM
2,"CO[C@H]1C[C@]2(CN(C)C(=O)c3c(O)c(=O)c(C(=O)NCc4cccc(Cl)c4F)cn32)C1 [Example 24, Monosodium 7′-(3-chloro-2-fluorobenzylcarbamoyl)-cis-3-methoxy-2′-methyl-1′,8′-dioxo-1′,2′,3′,8′-tetrahydrospiro[cyclobutane-1,4′-pyrido[1,2-a]pyrazin]-9′-olate]",0.9 nM
3,"CCN1C[C@@]2(C[C@@H]2COC)n2cc(C(=O)NCc3cccc(C(F)(F)F)c3F)c(=O)c(O)c2C1=O [Example T27, (1S,2S)-2′-ethyl-N-(2-fluoro-3-(trifluoromethyl)benzyl)-9′-hydroxy-2-(methoxymethyl)-1′,8′-dioxo-1′,2′,3′,8′-tetrahydrospiro[cyclopropane-1,4′-pyrido[1,2-a]pyrazine]-7′-carboxamide]",97 nM
